One series addresses T1, 17β-HSD3 (Homo sapiens, UniProt P37058).
T1 construct: expressed in transfected cells; host or cells: human 293-EBNA cells, stably transfected
T1 sequence (P37058 1-310): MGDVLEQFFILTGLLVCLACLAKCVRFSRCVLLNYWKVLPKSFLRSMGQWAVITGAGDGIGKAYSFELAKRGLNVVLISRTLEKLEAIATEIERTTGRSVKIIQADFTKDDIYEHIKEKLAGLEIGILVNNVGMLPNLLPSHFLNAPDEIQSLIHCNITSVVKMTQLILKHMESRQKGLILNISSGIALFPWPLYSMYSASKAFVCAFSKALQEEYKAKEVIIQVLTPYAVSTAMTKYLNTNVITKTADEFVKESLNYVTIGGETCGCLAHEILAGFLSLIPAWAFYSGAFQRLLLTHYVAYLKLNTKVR
Description: Assay for 17β-HSD3 activity (TLC assay) in 293-EBNA cells stably transfected with 17β-HSD3. The settings on record: for inhibition at 10 µM: 293-EBNA, mean of at least two measurements, typically SD ±5%. It counts as cell-based. How it is done:
Human 293-EBNA cells stably transfected with 17β-HSD3 were plated at 50,000 cells/well in 24 well plates in complete growth medium. After 48 h 2–3 nM [^3H]-androstenedione in assay medium (500 mL DMEM medium with 5 mL 100 × L-glutamine and 5 mL 7.5% sodium bicarbonate solution) was added with or without test compound at 1.5 mL/well (triplicate), and the cells incubated at 37 °C. Two hours later 1 mL medium was removed from each well and placed in a 125 × 16 mm glass test tube containing 25 µL of recovery solution (5000 dpm ^14C-testosterone and 25 µg unlabelled testosterone […], and the tubes vortexed at high speed for 2 × 30 s. After the samples had settled into two phases, they were snap-frozen in a dry ice/methanol bath. The upper organic phase was decanted into 75 × 12 mm tubes and evaporated to dryness under an airstream using a sample concentrator (TECHNE) at 40 °C. The samples were resuspended in ether (8 drops, then a further 3), spotted onto ca 60 F254 20 cm × 20 cm TLC plates and separated using a 4:1 v/v dichloromethane: ethyl acetate mobile phase. After drying the plates, the major spots were marked under a UV lamp, cut out and placed in individual scintillation vials containing 0.5 mL methanol. These were then shaken lightly and allowed to stand for 15 min before adding 10 mL of EcoScintA (scintillation fluid) to each tube along with 0.5 mL assay medium and counted in a scintillation spectrometer (Beckman, High Wycombe, Bucks, UK), using a program for duel [^3H/^14C] isotopes. The number of cells/well was then counted using a Coulter10 counter (Beckman). The inhibitory activity of the test compounds was then assessed by calculating the amount of product formed correcting for crossover between isotope counts, recovery, dilution and non-enzymatic degradation fmol/hr/million cells) with and without inhibitor (% inhibition).

The target of another series is T2, 17β-HSD Type 1 (Homo sapiens, UniProt P14061).
T2 construct: endogenous in cells; host or cells: T-47D breast cancer cells
T2 sequence (P14061 1-328): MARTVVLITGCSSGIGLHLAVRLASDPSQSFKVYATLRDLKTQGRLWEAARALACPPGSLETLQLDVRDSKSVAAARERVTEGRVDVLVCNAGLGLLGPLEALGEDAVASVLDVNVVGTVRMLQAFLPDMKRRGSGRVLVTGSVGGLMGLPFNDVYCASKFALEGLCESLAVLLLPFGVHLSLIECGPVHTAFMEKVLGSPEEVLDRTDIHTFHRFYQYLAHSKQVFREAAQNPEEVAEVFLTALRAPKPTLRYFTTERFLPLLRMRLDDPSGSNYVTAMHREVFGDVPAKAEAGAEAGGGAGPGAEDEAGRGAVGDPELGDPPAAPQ
The series can be described thus: 17β-HSD1 activity assay in T-47D breast cancer cells (estrone to estradiol). It counts as cell-based. The note with it: T47D, T-47D cells; for inhibition at 10 µM: tested at 10 μM. The protocol: The assay is of a similar format to the 17β-HSD Type 3 TLC assay. T-47D breast cancer cells, which express a high ratio of 17β-HSD Type 1 to 17β-HSD Type 2, were used to test the conversion of labelled estrone to estradiol in the presence and absence of the potential inhibitors. The cells were incubated with [^3H]-estrone at a concentration of 2 nM, in the absence or presence of the inhibitors (10 μM). After incubation of the culture for 3 h at 37 °C, the products were isolated and separated by TLC using DCM/ EtOAc (4:1). The amount of estradiol formed was measured and compared to the control cells, where no inhibitor was present. Each assay was carried out in the presence of a positive control (IC50 of 27 nM) to ensure reproducible results were obtained.

Series [1] can be described thus: Compound toxicity, MTS/Alamar Blue proliferation assay, PC-3. The settings on record: human, PC-3 (AR-) prostate cancer cells; PC3 (AR-); read-out: Cytotoxicity IC50 (µM) PC3 (AR-). It counts as cell-based. How it is done:
(§1) AR+ (LNCaP) and AR- (PC-3) PCa cell lines were used as standard lines to determine the cytotoxicity of HSD3 inhibitor compounds. Toxicity was assessed over 96 h in 96 well plates using the standard MTS/Alamar Blue proliferation assay and over longer durations by cell counting methodologies.
A general note: The colour change of resazurin is a common sign of viable cells or microbes.

Series [2] can be described thus: Compound toxicity, MTS/Alamar Blue proliferation assay, LNCaP. The settings on record: human, LNCaP (AR+) prostate cancer cells; read-out: Cytotoxicity IC50 (µM) LNCaP (AR+). It counts as cell-based. The protocol: as §1
For series [3], the target named is T3, 17β-HSD Type 2 (Homo sapiens, UniProt P37059).
T3 sequence (P37059 1-387): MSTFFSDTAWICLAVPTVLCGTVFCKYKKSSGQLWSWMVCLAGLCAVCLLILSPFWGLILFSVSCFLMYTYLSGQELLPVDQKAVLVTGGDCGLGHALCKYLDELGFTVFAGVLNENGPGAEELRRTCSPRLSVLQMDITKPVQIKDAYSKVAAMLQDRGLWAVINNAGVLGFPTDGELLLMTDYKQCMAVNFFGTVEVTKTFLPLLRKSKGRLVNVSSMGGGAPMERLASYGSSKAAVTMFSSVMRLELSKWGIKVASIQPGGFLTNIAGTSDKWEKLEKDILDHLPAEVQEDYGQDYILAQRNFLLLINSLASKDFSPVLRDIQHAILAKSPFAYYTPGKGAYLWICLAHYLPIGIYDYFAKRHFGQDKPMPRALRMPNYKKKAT
The series can be described thus: 17β-HSD2 activity assay in MDA-MB-231 cells (E2 to E1). The class given is cell-based. Details: endogenous in cells; host or cells: MDA-MB-231 human breast cancer cells. The protocol:
MDA-MB-231 human breast cancer cells in T25 flasks were incubated with 2 nM [^3H]-E2 (41.3 Ci/mmol; PerkinElmer, Beaconsfield, Bucks, UK) in the presence or absence of 10 µM candidate 17β-HSD3 inhibitors. After 3 h at 37 °C, the steroids were isolated from the mixture by extraction with diethyl ether and procedural losses were measured using [^14C]-E1 (5000 dpm; PerkinElmer). Separation of [^3H]-E1 from [^3H]-E2 was achieved using thin layer chromatography, eluting with dichloromethane/ethyl acetate, 4:1 v/v and the amount of [^3H]-E1 produced was calculated from the […] [^3H] counts detected and recovery of [^14C]-E1 (Beckman LS 6000 SC). A positive control was used in this assay (IC50 5.4 μM) to ensure reproducible results were obtained.

Series [4] relates to androstenedione-stimulated tumour growth. Details: method as in PMID 18786604, PMID 23132791. The note with it: mouse model; cited from earlier work.
Details of series [5]: method as in PMID 18786604, PMID 23132791. The note with it: introduction; cited from earlier work.
Series [6] has as its system LNCaP and PC-3 PCa cell lines. Details: method as in PMID 18786604, PMID 23132791. The settings on record: introduction; cited from earlier work.
The target of series [7] is T3, 17β-HSD Type 2. The settings on record: introduction; cited from earlier work.
A further series has as its system human 17β-HSD3. Also on record: method as in PMID 22512907. The settings on record: whole HEK-293 cells over-expressing human 17β-HSD3; cited from earlier work.
On the set-up of series [8]: method as in PMID 22512907. The note with it: given subcutaneously to rats; cited from earlier work.
Where [9] appears, read: TLC assay, 293-EBNA[HSD3] cells, read-out: IC50 (17β-HSD3).

Read-outs that look alike come from different tables or passages of the source.

The term IC50 denotes the point on the concentration scale where inhibition reaches its midpoint. The inhibition is the drop in the measured response relative to a control, in per cent. By melting point is commonly meant the temperature, or range, at which the solid turns liquid.

As for `CC(=O)N1CCC(CC(=O)N2CCN(C(c3ccc(Cl)cc3)c3ccc(Cl)cc3)C[C@@H]2C(C)(C)C)CC1` [SCH-451659], the half-maximal inhibitory concentration (IC50) at 17β-HSD3 (Table 10, read-out: Inhibition of 17β-HSD Type 3 (IC50 nM)) amounted to 5 nM. For the same molecule, the inhibition at 10 µM on 17β-HSD Type 1 was determined as 19.6%; at 17β-HSD Type 2 [3], 18.4%. Also, the IC50 at 96 h in series [1] amounted to 6.8 µM; in [2] it was 5.5 µM.
`CC(=O)Nc1ccccc1CNc1ccccc1Oc1ccc(Cl)cc1` [Compound 1, N-(2-([2-(4-Chloro-phenoxy)-phenylamino]-methyl)-phenyl)-acetamide] returned a melting point of 194 to 196 °C. Moreover, the inhibition at 10 µM against 17β-HSD3 (TLC assay) stood at 87%. Besides, the IC50 at 17β-HSD3 (setting [9]) is 900 nM. Besides, at 17β-HSD Type 1 (tested at 1 μM), the inhibition at 1 µM worked out at 1.3%. Moreover, the inhibition at 10 µM on 17β-HSD Type 2 [3] is 15.9%.
Consider `CC(=O)N1CCCC(Nc2ccccc2Oc2ccc(Cl)cc2)c2ccccc21` (stereo not drawn) [STX2171], for which the IC50 on 17β-HSD3 (setting [9]) came to 200 nM. In addition, the IC50 at 96 h was found to be 22 µM in series [1] and 15.7 µM in [2]. In addition, the “inhibition of androstenedione-stimulated tumour growth” value in series [4] is recorded as “potent inhibition”. In series [5], the androgenicity result is “non-androgenic”. In [6], the cytotoxicity in words entry is “weakly cytotoxic”. The “selectivity for inhibition of 17β-HSD3 over 17β-HSD2” value at 17β-HSD Type 2 [7] is recorded as “selective”. At 17β-HSD Type 2 [3], the inhibition at 10 µM came out at 20.3%.
As for `C[C@@H]1CN(S(=O)(=O)c2ccccc2C(F)(F)F)[C@@H](C)CN1[C@@]1(O)CC[C@@]2(C)C(CCC3C2CC[C@]2(C)C(=O)CCC32)C1` (stereo partly drawn) [RM-532-105], the IC50 in the series on human 17β-HSD3 is 0.005 µM. For the same molecule, the “plasma levels of T and DHT” value in [8] is “significantly decreased”.
With `CC(=O)N1CCC(C(=O)Nc2ccccc2CNc2ccccc2Oc2ccc(Cl)cc2)CC1` [Compound 23, 1-Acetyl-piperidine-4-carboxylic acid (2-[2-(4-chloro-phenoxy)-phenylamino]-methyl-phenyl)-amide], the melting point lay within 140 to 143 °C. The inhibition at 10 µM on 17β-HSD3 (TLC assay) was 91%. For the same molecule, the IC50 on 17β-HSD3 (setting [9]) was determined as 3900 nM. For the same molecule, the inhibition at 10 µM against 17β-HSD Type 1 is -2.3%.

Values taken from publication PMC8659031, “Substituted Aryl Benzylamines as Potent and Selective Inhibitors of 17β-Hydroxysteroid Dehydrogenase Type 3” (Molecules, 2021).
